Experimental data reported in ChEMBL document CHEMBL3997775, “Challenges and Opportunities in the Development of Serine Synthetic Pathway Inhibitors for Cancer Therapy” (J Med Chem, 2017).
pIC50: −log10 of the molar value. ≈ marks a conversion by molar mass, not a printed value.

test system: not listed separately; assay: Lipophilicity, logD of the compound; assay type: physicochemical; settings: octanol/water

| logD | SMILES |
| --- | --- |
| < -1 | O=C(COc1cc2[nH]c(C(=O)N[C@H](CO)c3ccc(C(=O)O)cc3)cc2cc1Cl)NCCO |

test system: not listed separately; assay: Solubility of the compound; assay type: physicochemical; settings: not given

| solubility [µM] | SMILES |
| --- | --- |
| 973 (≈ 463 µg/mL) | O=C(COc1cc2[nH]c(C(=O)N[C@H](CO)c3ccc(C(=O)O)cc3)cc2cc1Cl)NCCO |

molecular target: T1, D-3-phosphoglycerate dehydrogenase (Homo sapiens, UniProt O43175); assay: Inhibition of full length PHGDH (unknown origin) using 3-phosphoglycerate as substrate incubated for 60 mins in presence of PSAT1, PSPH by resazurin based diaphorase coupled assay; settings: not given
T1 sequence (O43175 whole entry): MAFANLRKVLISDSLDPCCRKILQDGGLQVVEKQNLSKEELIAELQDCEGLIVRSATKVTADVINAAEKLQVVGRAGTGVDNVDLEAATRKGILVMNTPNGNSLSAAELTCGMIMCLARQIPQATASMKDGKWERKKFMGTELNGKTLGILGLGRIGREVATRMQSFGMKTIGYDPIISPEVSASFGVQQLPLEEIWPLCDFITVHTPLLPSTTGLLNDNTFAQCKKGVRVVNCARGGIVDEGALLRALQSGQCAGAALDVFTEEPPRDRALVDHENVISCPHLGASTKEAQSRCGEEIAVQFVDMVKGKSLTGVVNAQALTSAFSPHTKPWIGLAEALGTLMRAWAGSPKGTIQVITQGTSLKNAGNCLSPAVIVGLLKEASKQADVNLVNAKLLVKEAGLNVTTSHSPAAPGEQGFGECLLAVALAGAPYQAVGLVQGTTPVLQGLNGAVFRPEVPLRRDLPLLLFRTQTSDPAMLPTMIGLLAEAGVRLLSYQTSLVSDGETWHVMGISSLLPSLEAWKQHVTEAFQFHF

| pIC50 | SMILES |
| --- | --- |
| < 4.00 | O=C(Nc1ccc(S(=O)(=O)Nc2ncccn2)cc1)c1cc(-c2ccccc2)on1 |
| > 4.30 | Cn1nc(-c2ccccc2)cc1C(=O)Nc1ccc(S(=O)(=O)Nc2ncccn2)cc1 |
| > 4.30 | O=C(Nc1ccc(S(=O)(=O)Nc2ncccn2)cc1)c1cc(-c2ccccc2O)n[nH]1 |
| < 4.00 | CN(c1ncccn1)S(=O)(=O)c1ccc(NC(=O)c2cc(-c3ccccc3)n[nH]2)cc1 |
| < 4.00 | NS(=O)(=O)c1ccc(NC(=O)c2cc(-c3ccccc3O)[nH]n2)cc1 |
| < 4.00 | Cc1c(-c2ccccc2)n[nH]c1C(=O)Nc1ccc(S(=O)(=O)Nc2ncccn2)cc1 |
| 4.00 to 4.30 | O=C(Nc1ccc(S(=O)(=O)Nc2ccccn2)cc1)c1cc(-c2ccccc2)n[nH]1 |
| < 4.00 | O=C(c1cc(-c2ccccc2)n[nH]1)N1CCC2C=C(S(=O)(=O)Nc3ncccn3)C=CC21 (stereo not drawn) |
| > 4.30 | Cc1cc(C)nc(NS(=O)(=O)c2ccc(NC(=O)c3cc(-c4ccccc4)n[nH]3)cc2)n1 |
| < 4.00 | O=C(Nc1ccc(S(=O)(=O)N2CCCCC2)cc1)c1cc(-c2ccccc2O)n[nH]1 |
| > 4.30 | O=C(Nc1ccc(S(=O)(=O)Nc2ncccn2)cc1)c1cc(-c2ccccc2)n[nH]1 |
| > 4.30 | O=C(Nc1ccc(S(=O)(=O)Nc2ncccn2)cc1)c1cc(-c2ccccc2F)n[nH]1 |
| < 4.00 | Nc1ncccc1-c1cc(C(=O)Nc2ccc(S(=O)(=O)Nc3ncccn3)cc2)[nH]n1 |
| > 4.30 | Cc1ccnc(NS(=O)(=O)c2ccc(NC(=O)c3cc(-c4ccccc4O)n[nH]3)cc2)n1 |
| < 4.00 | O=C(Nc1ccc(S(=O)(=O)Nc2ncccn2)cc1)c1cc(-c2ccccc2)nn1-c1ccccc1 |
| < 4.00 | CN(c1ncccn1)S(=O)(=O)c1ccc(NC(=O)c2cc(-c3ccccc3O)n[nH]2)cc1 |
| < 4.00 | O=C(Nc1ccc(S(=O)(=O)Nc2ncccn2)cc1)c1cc(-c2ccccc2)no1 |
| < 4.00 | O=C(Nc1ccc(S(=O)(=O)NCc2ccco2)cc1)c1cc(-c2ccccc2O)n[nH]1 |
| < 4.00 | O=C(Nc1ccc(S(=O)(=O)Nc2ccccn2)cc1)c1cc(-c2ccccc2O)n[nH]1 |
| < 4.00 | O=C(Nc1ccc(S(=O)(=O)NCCCN2CCOCC2)cc1)c1cc(-c2ccccc2O)n[nH]1 |
| > 4.30 | COc1ccccc1-c1cc(C(=O)Nc2ccc(S(=O)(=O)Nc3ncccn3)cc2)[nH]n1 |
| < 4.00 | O=C(Nc1ccc(S(=O)(=O)Nc2ncccn2)cc1)c1cc(-c2ccccc2C(=O)O)n[nH]1 |

molecular target: T2, D-3-phosphoglycerate dehydrogenase (Homo sapiens) (UniProt O43175); assay: Binding affinity to human N- terminal His6-tagged PHGDH (1 to 533 residues) expressed in Escherichia coli Rosetta (DE3) assessed as change in melting temperature by SYPRO orange dye based DSF assay; settings: not given
T2 sequence (whole entry): T1 sequence (O43175 whole entry)

| ΔTm [°C] | SMILES |
| --- | --- |
| 2.3 | NC(=O)c1ccc(F)c(Cl)c1 |
| 2.2 | Cn1nc(-c2ccccc2)cc1N |
| 1.4 | Nc1cccc(-c2cnco2)c1 |
| 2.5 | Oc1noc2ccccc12 |
| 2.4 | Cc1cccc2cc[nH]c12 |
| 1.7 | O=C1COc2cc(O)ccc21 |
| 1.3 | COc1ccc(NC(C)=O)cc1Cl |

molecular target: T1, D-3-phosphoglycerate dehydrogenase; settings: not given

| pIC50 | SMILES |
| --- | --- |
| 5.19 | Cc1cc(C)nc(NC(=S)N2CCN(c3cccc(C(F)(F)F)c3)CC2)c1 |
| < 4.24 | Cc1cccc(NC(=S)N2CCN(c3cccc(C(F)(F)F)c3)CC2)c1 |
